According to PMC9021956, “Screening and Identification of HBV Epitopes Restricted by Multiple Prevalent HLA-A Allotypes” (Frontiers in Immunology, 2022):
Like-named read-outs stand apart in the source and are kept apart here. Residues, ends and D or L forms follow the SMILES beside them.

Columns and labels:
[1] = test system: twelve prevalent HLA-A allotypes; assay: Peptide competitive binding assay, whole panel; parameters: species or system human; details: high = IC50<5μM
Method: A set of fluoresce-labeled reference peptides (positive-control peptide) were synthesized with a purity of >99% by Sangon Biotech and stored at 4°C, such as FLPSDK(FITC)FPSV for A0201, A0203 and A0206 ([30]), YVNVNK(FITC)GLK for A1101 and A3303 ([31]), EYLVSK(FITC)GVW for A2402 ([32]), ATFQFK(FITC)VER for A3101, A1102 and A0301 ([33]), KLPDDFK(FITC)GCV for A0207 ([34]), YLEPAK(FITC)AKY for A0101 ([30]), and ASRELK(FITC)VSY for A3001 (identified in house). Then the competitive peptide binding assay was performed as described with minor modifications ([30], [35]). Briefly, the HMy2.CIR cell lines expressing the indicated HLA-A molecule were washed with acid buffer (0.131M citric acid and 0.061M sodium phosphate Na2HPO4, PH3.3, 0.22 μm filtered) for 1 min, and immediately neutralized by IMDM medium containing 0.5% BSA. After washing, the cells were seeded into 96-well U culture plate (1×10^5 cells/100 μL/well) with β2-m (1 μg/mL). […] In parallel, no peptide control well (cells alone) and positive control well (cells with FITC-labeled reference peptide) were also performed.
The plate was centrifuged at 600 rpm for 5 min at room temperature (RT). Cells were washed twice with 100 μL cold 0.5% BSA-PBS. Finally, cells were resuspended with 150 μL PBS and analyzed with flow cytometry. Sample % is the percentage of FITC^+ cells in the experiment well, while the background % is the percentage of FITC^+ cells in the no peptide control well, and the max % is the percentage of FITC^+ cells in the positive control well. Competitive binding (%) = [1-(sample % - background %)/(max % – background %)] × 100%. […] Binding affinity of unlabeled peptide with the indicated HLA-A molecule is assessed by IC50.
Subsequently, the unlabeled epitope peptides of HBV competed with fluorescently labeled reference peptides in the binding with HLA-A molecules onto transfected cell lines for 24 hours. Here, twelve prevalent HLA-A allotypes were tested with totally 62 HBV epitope peptides validated in house.

[2] = biological target: HLA-A2402 (Homo sapiens, UniProt P04439, D101N/D140Y/D185E/E176V/E190D/F33S/G103R/G107R/I119L/I121M/I306V/K335N/L105A/L180Q/L300P/N151K/N90K/Q86E/Q94H/R106L/R138H/R89G/T104I/T345S/V100E/W191G/Y123F); assay: cell-based; assay type: binding; details: for inhibition at 5 µM / inhibition at 15 µM: HLA-A2402 HMy2.CIR cells, 24 hours, flow cytometry; for inhibition at 5 µM: competitor peptide 5μM; for inhibition at 15 µM: competitor peptide 15μM
Summary of the method: (§1)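 HMy2.CIR cells stably transfected with the HLA-A allele, acid-stripped (citrate/phosphate, pH3.3), neutralised and plated with β2-m (1 μg/mL); unlabeled peptide competes with the allele's FITC reference peptide. FITC+ cells read by flow cytometry; competitive binding % normalised to no-peptide and reference-only wells; IC50 reported.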

[3] = biological target: T1, HLA-A3303 (Homo sapiens, UniProt P04439, A270S/D185E/E176V/E277Q/E87N/F33T/G231S/H175R/I121M/I218V/I322F/K168Q/L300P/L318F/M331R/P217A/Q86R/Q94H/R138Q/T323A/T345S/T97I/V358M); assay: cell-based; assay type: binding; details: for inhibition at 5 µM / inhibition at 15 µM: HLA-A3303 HMy2.CIR cells, 24 hours, flow cytometry; for inhibition at 5 µM: competitor peptide 5μM, read-out: 5μM Inhibition (%); for inhibition at 15 µM: competitor peptide 15μM, read-out: 15μM Inhibition (%)
T1 construct: expressed in transfected cells; host or cells: HMy2.CIR
Summary of the method: as §1

[4] = biological target: T2, HLA-A0201 (Homo sapiens, UniProt P04439, D140Y/D185E/D98H/E176V/E277Q/G131W/G231S/I119V/I121R/I166T/I218V/L300P/L318F/N151K/N90K/P208A/P217A/Q86G/Q94H/R138H/R169H/T345S); assay: cell-based; assay type: binding; details: for inhibition at 5 µM / inhibition at 15 µM: HLA-A0201 HMy2.CIR cells, 24 hours, flow cytometry; for inhibition at 5 µM: competitor peptide 5μM, read-out: 5μM Inhibition (%); for inhibition at 15 µM: competitor peptide 15μM, read-out: 15μM Inhibition (%)
T2 construct: expressed in transfected cells; host or cells: HMy2.CIR
Summary of the method: as §1

[5] = biological target: T3, HLA-A0206 (Homo sapiens, UniProt P04439, D140Y/D185E/D98H/E176V/E277Q/F33Y/G131W/G231S/I119V/I121R/I166T/I218V/L300P/L318F/N151K/N90K/P208A/P217A/Q86G/Q94H/R138H/R169H/T345S); assay: cell-based; assay type: binding; details: for inhibition at 5 µM / inhibition at 15 µM: HLA-A0206 HMy2.CIR cells, 24 hours, flow cytometry; for inhibition at 5 µM: competitor peptide 5μM, read-out: 5μM Inhibition (%); for inhibition at 15 µM: competitor peptide 15μM, read-out: 15μM Inhibition (%)
T3 construct: expressed in transfected cells; host or cells: HMy2.CIR
Summary of the method: as §1

[6] = biological target: T4, HLA-A1101 (Homo sapiens, UniProt P04439, A114D/D185E/E176A/F33Y/L180Q/S129P/T187R); assay: cell-based; assay type: binding; details: for inhibition at 5 µM: read-out: 5μM Inhibition (%); for inhibition at 15 µM: read-out: 15μM Inhibition (%)
T4 construct: expressed in transfected cells; host or cells: HMy2.CIR
Summary of the method: as §1

[7] = biological target: T5, HLA-A0207 (Homo sapiens, UniProt P04439, D140Y/D185E/D98H/E176V/E277Q/G131W/G231S/I119V/I121R/I166T/I218V/L300P/L318F/N151K/N90K/P208A/P217A/Q86G/Q94H/R138H/R169H/T345S/Y123C); assay: cell-based; assay type: binding; details: for inhibition at 5 µM / inhibition at 15 µM: HLA-A0207 HMy2.CIR cells, 24 hours, flow cytometry; for inhibition at 5 µM: competitor peptide 5μM, read-out: 5μM Inhibition (%); for inhibition at 15 µM: competitor peptide 15μM, read-out: 15μM Inhibition (%)
T5 construct: expressed in transfected cells; host or cells: HMy2.CIR
Summary of the method: as §1

[8] = biological target: T6, HLA-A0203 (Homo sapiens, UniProt P04439, A173T/D140Y/D185E/D98H/E277Q/G131W/G231S/I119V/I121R/I166T/I218V/L180W/L300P/L318F/N151K/N90K/P208A/P217A/Q86G/Q94H/R138H/R169H/T345S); assay: cell-based; assay type: binding; details: for inhibition at 5 µM / inhibition at 15 µM: HLA-A0203 HMy2.CIR cells, 24 hours, flow cytometry; for inhibition at 5 µM: competitor peptide 5μM; for inhibition at 15 µM: competitor peptide 15μM
T6 construct: expressed in transfected cells; host or cells: HMy2.CIR
Summary of the method: as §1

[9] = biological target: T7, HLA-A1102 (Homo sapiens, UniProt P04439, A114D/D185E/E176A/E43K/F33Y/L180Q/S129P/T187R); assay: Peptide competitive binding assay, transfected HMy2.CIR cells, reference ATFQFK(FITC)VER; details: for inhibition at 5 µM / inhibition at 15 µM: HLA-A1102 HMy2.CIR cells, 24 hours, flow cytometry; for inhibition at 5 µM: competitor peptide 5μM, read-out: 5μM Inhibition (%); for inhibition at 15 µM: competitor peptide 15μM, read-out: 15μM Inhibition (%); for IC50: read-out: Affinity
T7 construct: expressed in transfected cells; host or cells: HMy2.CIR
Summary of the method: as §1

[10] = biological target: T8, HLA-A0301 (Homo sapiens, UniProt P04439); assay: as above; details: for inhibition at 5 µM / inhibition at 15 µM: HLA-A0301 HMy2.CIR cells, 24 hours, flow cytometry; for inhibition at 5 µM: competitor peptide 5μM, read-out: 5μM Inhibition (%); for inhibition at 15 µM: competitor peptide 15μM, read-out: 15μM Inhibition (%); for IC50: read-out: Affinity
T8 construct: expressed in transfected cells; host or cells: HMy2.CIR
Summary of the method: as §1

[11] = HLA-A1101 HMy2.CIR cells, competitor peptide 5μM, 24 hours, flow cytometry
[12] = HLA-A1101 HMy2.CIR cells, competitor peptide 15μM, 24 hours, flow cytometry

SMILES	number of HLA-A allotypes bound with high affinity [1]	inhibition at 5 µM [2]	inhibition at 15 µM [2]	inhibition at 5 µM [3]	inhibition at 15 µM [3]	inhibition at 5 µM [4]	inhibition at 15 µM [4]	inhibition at 5 µM [5]	inhibition at 15 µM [5]	inhibition at 5 µM [6, 11]	inhibition at 15 µM [6, 12]	inhibition at 5 µM [7]	inhibition at 15 µM [7]	IC50 [8]	inhibition at 5 µM [8]	inhibition at 15 µM [8]	IC50 [3]	IC50 [4]	IC50 [6]	inhibition at 5 µM [9]	also measured
CC[C@H](C)[C@H](NC(=O)CNC(=O)[C@H](CC(C)C)NC(=O)[C@H](CO)NC(=O)[C@H](CC(C)C)NC(=O)[C@H](CC(C)C)NC(=O)[C@@H](N)Cc1ccccc1)C(=O)N[C@@H](Cc1c[nH]cn1)C(=O)N[C@@H](CC(C)C)C(=O)O [Epitope P10]	two	19%	17%	60.1%	66.1%	81.7%	71.6%	21.5%	43.2%	7.2%	8%	27%	31%								
CC[C@H](C)[C@H](NC(=O)[C@H](Cc1c[nH]c2ccccc12)NC(=O)[C@@H](NC(=O)CNC(=O)[C@H](Cc1ccccc1)NC(=O)[C@H](CO)NC(=O)[C@@H](NC(=O)[C@H](CC(C)C)NC(=O)[C@@H](N)Cc1ccc(O)cc1)C(C)C)C(C)C)C(=O)O [Epitope P11]	two	41%	52.5%	10.2%	4.63%	81.2%	96.2%							< 5 µM	89.4%	97.4%	> 15 µM	< 5 µM	> 15 µM		Affinity [2]: inter; inhibition at 5 µM ([6]; 24 h): 17.1%; inhibition at 15 µM ([6]; 24 h): 20%
CC(C)C[C@H](NC(=O)[C@H](CC(N)=O)NC(=O)CNC(=O)[C@H](Cc1c[nH]cn1)NC(=O)[C@H](C)NC(=O)[C@H](CC(N)=O)NC(=O)[C@@H](NC(=O)[C@@H](N)[C@@H](C)O)C(C)C)C(=O)N1CCC[C@H]1C(=O)N[C@@H](CCCCN)C(=O)O [Epitope P47] (H-TVNAHGNLPK-OH; N-terminus and C-terminus assumed)	two					7.2%	12%			78.3%	90.3%							> 15 µM	< 5 µM	24.7%	inhibition at 15 µM [9]: 44.2%; IC50 [9]: > 15 µM; inhibition at 5 µM [10]: 65.8%; inhibition at 15 µM [10]: 78.1%; IC50 [10]: < 5 µM
CC(C)C[C@H](NC(=O)[C@@H](NC(=O)[C@H](CCC(N)=O)NC(=O)[C@H](Cc1c[nH]cn1)NC(=O)[C@H](C)NC(=O)[C@H](CC(N)=O)NC(=O)[C@@H](NC(=O)[C@@H](N)[C@@H](C)O)C(C)C)C(C)C)C(=O)N1CCC[C@H]1C(=O)N[C@@H](CCCCN)C(=O)O [Epitope P48] (H-TVNAHQVLPK-OH; N-terminus and C-terminus assumed)	two					9.5%	15%			86%	91%							> 15 µM	< 5 µM	25.5%	inhibition at 15 µM [9]: 42.7%; IC50 [9]: > 15 µM; inhibition at 5 µM [10]: 67.9%; inhibition at 15 µM [10]: 73.9%; IC50 [10]: < 5 µM
CC(C)C[C@H](NC(=O)[C@@H](N)Cc1ccccc1)C(=O)N1CCC[C@H]1C(=O)N[C@@H](CO)C(=O)N[C@@H](CC(=O)O)C(=O)N[C@@H](Cc1ccccc1)C(=O)N[C@@H](Cc1ccccc1)C(=O)N1CCC[C@H]1C(=O)N[C@@H](CO)C(=O)O [Epitope P67] (H-FLPSDFFPS-OH; N-terminus and C-terminus assumed)	three	2%	4.3%	0%	0%	91.5%	97.8%	95.7%	100%			42%	48%	< 5 µM	86.3%	91.5%	> 15 µM	< 5 µM			IC50 [2]: > 15 µM; IC50 [5]: < 5 µM; IC50 [7]: > 15 µM
CC(C)C[C@H](NC(=O)[C@@H](N)Cc1ccccc1)C(=O)N[C@@H](Cc1c[nH]c2ccccc12)C(=O)N[C@@H](CCC(=O)O)C(=O)N[C@@H](Cc1c[nH]c2ccccc12)C(=O)N[C@@H](C)C(=O)N[C@@H](CO)C(=O)N[C@H](C(=O)N[C@@H](CCCNC(=N)N)C(=O)O)C(C)C [Epitope P78] (H-FLWEWASVR-OH; N-terminus and C-terminus assumed)	two	1%	9.1%	72.1%	89.6%	79.7%	97.3%										< 5 µM	< 5 µM			IC50 [2]: > 15 µM
